Reference: patent publication US20250197420A1, “MACROCYCLIC COMPOUNDS, COMPOSITIONS, AND METHODS OF USING THEREOF” (Sionna Therapeutics Inc., priority 2022, published 2025)

Key:
[1] = system: Primary human bronchial epithelial cells from a ΔF508 homozygous CF donor (CF-HBE cells); experiment: TECC24 recording of CFTR-mediated transepithelial chloride transport, AUC fold over benchmark VX-809 @10 μM; type: cell-based; details: 48 hours incubation, AUC of forskolin-stimulated IEQ
Protocol: The effects of a test agent on CFTR-mediated transepithelial chloride transport is measured using TECC24 recording analysis. Test agents are solubilized in DMSO. Solubilized test agents are mixed with incubation medium containing DMEM/F12, Ultroser G (0.5%; Crescent Chemical, catalog #67042), Hyclone Fetal Clone II (2%; GE Healthcare, catalog #SH30066.02), bovine brain extract (0.25%; Lonza, catalog #CC-4098), insulin ([…]), IL-13 (10 ng/mL), hydrocortisone (20 nM), transferrin ([…]), triiodothyronine (500 nM), ethanolamine (250 nM), epinephrine (1.5 μM), phosphoethanolamine (250 nM), and retinoic acid (10 nM). Primary human bronchial epithelial cells from a ΔF508 homozygous CF donor (CF-HBE cells; from University of North Carolina Cystic Fibrosis Tissue Procurement Center), grown on Transwell HTS 24-well cell culture inserts (Costar, catalog #3378), are exposed to test agents or controls dissolved in incubation medium. The CF-HBE cells are cultured at 36.5° C. for 48 hours before TECC24 recordings are performed in the presence or absence of test agent, a positive control or vehicle (DMSO).
Following incubation, the transwell cell culture inserts containing the test agent or control-treated CF-HBE cells are loaded onto a TECC24 apparatus (TECC v7 or MTECC v2; EP Design) to record the transepithelial voltage (VT) and resistance (TEER) using 4 AgCl electrodes per well configured in current-clamp mode. The apical and basolateral bath solutions both contain (in mM) 140 NaCl, 5 KCl, 2 CaCl2), 1 MgCl2, 10 Hepes, and 10 glucose (adjusted to pH 7.4 with NaOH). To inhibit basal Na+ absorption, the ENaC inhibitor benzamil (10 μM) is added to the bath. Then, the adenylate cyclase activator, forskolin (10 μM), is added to the bath to activate CFTR. The forskolin-stimulated Cl− transport is halted by addition of CFTR inhibitor-172 (20 μM) to the bath at the end of the experiment to confirm specificity. VT and TEER recordings are digitally acquired at routine intervals using TECC or MTECC software (EP Design). VT and TEER are transformed into equivalent transepithelial Cl− current (IEQ), and the Area Under the Curve (AUC) of the IEQ time course between forskolin and CFTR inhibitor-172 addition is generated using Excel (Microsoft). Efficacy is expressed as the ratio of the test agent AUC divided by vehicle AUC. EC50s based on AUC are generated using the non-linear regression log(agonist) vs. response function in Prism software (Graphpad) with HillSlope fixed=1.
If a test agent increases the AUC of the forskolin-stimulated IEQ relative to VX-809 in CF-HBE cells, and this increase is inhibited by CFTR inhibitor-172, then the test agent is considered a CFTR corrector. TECC assay efficacy is expressed as the ratio of the test agent AUC divided by VX-809 AUC. As set forth in Table 2 below, a TECC value less than 3 is marked “A”; a value between 3 and 6 is marked “B”; a value between 6 and 20 is marked “C”.

[2] = molecular target: T1, Purified recombinant NBD1 (Homo sapiens, UniProt P13569); experiment: Aggregation analysis using differential static light scattering (DSLS): thermal stability of NBD1; type: binding; details: NBD1 0.2 mg/ml; Tagg of compound well minus average Tagg of DMSO control wells
T1 construct: Purified recombinant NBD1 was produced using previously described methods; made in house
T1 sequence (P13569 423-646 limits assumed): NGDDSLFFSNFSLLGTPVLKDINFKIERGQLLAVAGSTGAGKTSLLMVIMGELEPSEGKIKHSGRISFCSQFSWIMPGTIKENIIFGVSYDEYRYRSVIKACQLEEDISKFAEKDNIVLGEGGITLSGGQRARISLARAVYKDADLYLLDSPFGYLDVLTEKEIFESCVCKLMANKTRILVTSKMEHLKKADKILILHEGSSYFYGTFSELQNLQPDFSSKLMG
In short: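 ΔTagg is compound-well aggregation temperature minus the DMSO-control mean, each Tagg being the inflection point of light scattering measured by DSLS during a 1 °C/min ramp up to 70 °C. The protein was purified NBD1 (0.2 mg/ml) in pH 7.6 buffer containing 2 mM ATP, 5 mM MgCl2 and 1% glycerol.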

Question: With `CN1CC(C)(C)CCCC(C)(c2cccc(CCC(=O)O)c2)c2cnc([nH]2)-c2cc(ccc2F)Oc2c(F)cc3[nH]ccc3c2CCC1=O` (single isomer, unassigned) [Compound 49A, 3-[3-(23,29-Difluoro-6,10,10,12-tetramethyl-13-oxo-25-oxa-3,12,20,31-tetrazapentacyclo-[24.3.1.12,5.016,24.017,21]-hentriaconta-1(30),2,4,16,18,21,23,26,28-nonaen-6-yl)phenyl]propanoic acid] as the molecule, how does the “TECC (test agent AUC divided by VX-809 AUC)” value [1] read?
Answer: A (a TECC value less than 3 is marked “A”)

Question: And the “DSLS (ΔTagg)” value [2]?
Answer: A (an ΔTagg value less than or equal to 5 °C is marked “A”)

Question: `CN1CC(C)(C)CCCC(C)(c2cccc(CCC(=O)O)c2)c2cnc([nH]2)-c2cc(ccc2F)Oc2c(F)cc3[nH]ccc3c2CCC1=O` (single isomer, unassigned) [Compound 49B, 3-[3-(23,29-Difluoro-6,10,10,12-tetramethyl-13-oxo-25-oxa-3,12,20,31-tetrazapentacyclo-[24.3.1.12,5.016,24.017,21]-hentriaconta-1(30),2,4,16,18,21,23,26,28-nonaen-6-yl)phenyl]propanoic acid] was tested. Which “TECC (test agent AUC divided by VX-809 AUC)” value [1] did it give?
Answer: A (a TECC value less than 3 is marked “A”)

Question: What about the “DSLS (ΔTagg)” value [2] of the same molecule?
Answer: C (a value greater than 10 °C and less than or equal to 25 °C is marked “C”)

Question: For `CNC(=O)CCc1cccc(C2(C)CCCC(C)(C)CN(C)C(=O)CCc3c(c(F)cc4[nH]ccc34)Oc3ccc(F)c(c3)-c3ncc2[nH]3)c1` (single isomer, unassigned) [Compound 53A, 3-[3-(23,29-difluoro-6,10,10,12-tetramethyl-13-oxo-25-oxa-3,12,20,31-tetrazapentacyclo-[24.3.1.12,5.016,24.017,21]hentriaconta-1(30),2,4,16,18,21,23,26,28-nonaen-6-yl)phenyl]-N-methyl-propanamide], which “TECC (test agent AUC divided by VX-809 AUC)” value [1] is on record?
Answer: A (a TECC value less than 3 is marked “A”)

Question: What about the “DSLS (ΔTagg)” value [2] of the same molecule?
Answer: A (an ΔTagg value less than or equal to 5 °C is marked “A”)

Question: For `CNC(=O)CCc1cccc(C2(C)CCCC(C)(C)CN(C)C(=O)CCc3c(c(F)cc4[nH]ccc34)Oc3ccc(F)c(c3)-c3ncc2[nH]3)c1` (single isomer, unassigned) [Compound 53B, 3-[3-(23,29-difluoro-6,10,10,12-tetramethyl-13-oxo-25-oxa-3,12,20,31-tetrazapentacyclo-[24.3.1.12,5.016,24.017,21]hentriaconta-1(30),2,4,16,18,21,23,26,28-nonaen-6-yl)phenyl]-N-methyl-propanamide], which “TECC (test agent AUC divided by VX-809 AUC)” value [1] is on record?
Answer: A (a TECC value less than 3 is marked “A”)

Question: What about the “DSLS (ΔTagg)” value [2] of the same molecule?
Answer: B (a value above 5 °C and less than or equal to 10 °C is marked “B”)

Question: Which “TECC (test agent AUC divided by VX-809 AUC)” value [1] does the source give for `CN1CC(C)(C)CCCC(C)(c2cccc(CCC(=O)NO)c2)c2cnc([nH]2)-c2cc(ccc2F)Oc2c(F)cc3[nH]ccc3c2CCC1=O` (single isomer, unassigned) [Compound 54, 3-[3-(23,29-difluoro-6,10,10,12-tetramethyl-13-oxo-25-oxa-3,12,20,31-tetrazapentacyclo-[24.3.1.12,5.016,24.017,21]hentriaconta-1(30),2,4,16,18,21,23,26,28-nonaen-6-yl)phenyl]propanehydroxamic acid] here?
Answer: A (a TECC value less than 3 is marked “A”)

Question: And the “DSLS (ΔTagg)” value [2]?
Answer: A (an ΔTagg value less than or equal to 5 °C is marked “A”)

Question: With `CN1CC(C)(C)CCCC(C)(c2cccc(CCC(=O)NO)c2)c2cnc([nH]2)-c2cc(ccc2F)Oc2c(F)cc3[nH]ccc3c2CCC1=O` (single isomer, unassigned) [Compound 55, 3-[3-(23,29-difluoro-6,10,10,12-tetramethyl-13-oxo-25-oxa-3,12,20,31-tetrazapentacyclo-[24.3.1.12,5.016,24.017,21]hentriaconta-1(30),2,4,16,18,21,23,26,28-nonaen-6-yl)phenyl]propanehydroxamic acid] as the molecule, how does the “TECC (test agent AUC divided by VX-809 AUC)” value [1] read?
Answer: A (a TECC value less than 3 is marked “A”)

Question: What about the “DSLS (ΔTagg)” value [2] of the same molecule?
Answer: B (a value above 5 °C and less than or equal to 10 °C is marked “B”)

Question: Which “TECC (test agent AUC divided by VX-809 AUC)” value [1] does the source give for `COCCONC(=O)CCc1cccc(C2(C)CCCC(C)(C)CN(C)C(=O)CCc3c(c(F)cc4[nH]ccc34)Oc3ccc(F)c(c3)-c3ncc2[nH]3)c1` (single isomer, unassigned) [Compound 56, 3-[3-(23,29-difluoro-6,10,10,12-tetramethyl-13-oxo-25-oxa-3,12,20,31-tetrazapentacyclo[24.3.1.12,5.016,24.017,21]hentriaconta-1(30),2,4,16,18,21,23,26,28-nonaen-6-yl)phenyl]-N-(2-methoxyethoxy)propanamide] here?
Answer: A (a TECC value less than 3 is marked “A”)

Question: And the “DSLS (ΔTagg)” value [2]?
Answer: A (an ΔTagg value less than or equal to 5 °C is marked “A”)

Question: With `COCCONC(=O)CCc1cccc(C2(C)CCCC(C)(C)CN(C)C(=O)CCc3c(c(F)cc4[nH]ccc34)Oc3ccc(F)c(c3)-c3ncc2[nH]3)c1` (single isomer, unassigned) [Compound 57, 3-[3-(23,29-difluoro-6,10,10,12-tetramethyl-13-oxo-25-oxa-3,12,20,31-tetrazapentacyclo[24.3.1.12,5.016,24.017,21]hentriaconta-1(30),2,4,16,18,21,23,26,28-nonaen-6-yl)phenyl]-N-(2-methoxyethoxy)propanamide] as the molecule, how does the “TECC (test agent AUC divided by VX-809 AUC)” value [1] read?
Answer: B (a value between 3 and 6 is marked “B”)

Question: What about the “DSLS (ΔTagg)” value [2] of the same molecule?
Answer: B (a value above 5 °C and less than or equal to 10 °C is marked “B”)

Question: How did the “TECC (test agent AUC divided by VX-809 AUC)” value [1] turn out when `CN1CC(C)(C)CCCC(C)(c2cccc(CCC(=O)NOCCO)c2)c2cnc([nH]2)-c2cc(ccc2F)Oc2c(F)cc3[nH]ccc3c2CCC1=O` (single isomer, unassigned) [Compound 58, 3-[3-(23,29-difluoro-6,10,10,12-tetramethyl-13-oxo-25-oxa-3,12,20,31-tetrazapentacyclo[24.3.1.12,5.016,24.017,21]hentriaconta-1(30),2,4,16,18,21,23,26,28-nonaen-6-yl)phenyl]-N-(2-hydroxyethoxy)propanamide] was run?
Answer: A (a TECC value less than 3 is marked “A”)

Question: And the “DSLS (ΔTagg)” value [2]?
Answer: A (an ΔTagg value less than or equal to 5 °C is marked “A”)

Question: Which results are given for `CN1CC(C)(C)CCCC(C)(c2cccc(CCC(=O)NOCCO)c2)c2cnc([nH]2)-c2cc(ccc2F)Oc2c(F)cc3[nH]ccc3c2CCC1=O` (single isomer, unassigned) [Compound 59, 3-[3-(23,29-difluoro-6,10,10,12-tetramethyl-13-oxo-25-oxa-3,12,20,31-tetrazapentacyclo[24.3.1.12,5.016,24.017,21]hentriaconta-1(30),2,4,16,18,21,23,26,28-nonaen-6-yl)phenyl]-N-(2-hydroxyethoxy)propanamide]?
Answer: TECC (test agent AUC divided by VX-809 AUC) [1]: A (a TECC value less than 3 is marked “A”); DSLS (ΔTagg) [2]: B (a value above 5 °C and less than or equal to 10 °C is marked “B”)

Question: Which “TECC (test agent AUC divided by VX-809 AUC)” value [1] does the source give for `CON(C)C(=O)CCc1cccc(C2(C)CCCC(C)(C)CN(C)C(=O)CCc3c(c(F)cc4[nH]ccc34)Oc3ccc(F)c(c3)-c3ncc2[nH]3)c1` (single isomer, unassigned) [Compound 60A, 3-[3-(23,29-difluoro-6,10,10,12-tetramethyl-13-oxo-25-oxa-3,12,20,31-tetrazapentacyclo-[24.3.1.12,5.016,24.017,21]hentriaconta-1(30),2,4,16,18,21,23,26,28-nonaen-6-yl)phenyl]-N-methoxy-N-methyl-propanamide] here?
Answer: A (a TECC value less than 3 is marked “A”)

Question: What about the “DSLS (ΔTagg)” value [2] of the same molecule?
Answer: A (an ΔTagg value less than or equal to 5 °C is marked “A”)
